From patent publication US10131652B2, “Pyrimidinyloxy benzene derivatives as herbicides” (E. I. DU PONT DE NEMOURS AND COMPANY, priority 2014, dated 2018)
Where two headings read alike, the source gives them in different places.

Key:
Format in all cases: in vivo
[1] = system: velvetleaf (Abutilon theophrasti); test: Test D pre-/postemergence plant response; conditions: Abutilon theophrasti, pre-emergence, Preemergence, scale 0 to 100 (0 no effect, 100 complete control), read-out: Plant response rating, Velvetleaf
Summary of the method: (§1)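 Each compound, in non-phytotoxic solvent with surfactant, was sprayed onto soil right after sowing or onto young plants 2 to 18 cm tall. After 13 to 15 days under greenhouse conditions, effects were judged visually against controls on a 0 (no effect) to 100 (complete control) scale.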

[2] = system: large (Lg) crabgrass (Digitaria sanguinalis); test: Test D pre-/postemergence plant response; conditions: Digitaria sanguinalis; for pest or weed control at 16 g/ha: 16 g ai/ha; for pest or weed control at 31 g/ha: 31 g ai/ha; for pest or weed control at 62 g/ha: 62 g ai/ha; for pest or weed control at 125 g/ha: 125 g ai/ha
Summary of the method: as §1

[3] = system: winter wheat (Triticum aestivum); test: Test D pre-/postemergence plant response; conditions: Triticum aestivum; for plant injury at 31 g/ha: 31 g ai/ha; for plant injury at 62 g/ha: 62 g ai/ha; for plant injury at 125 g/ha: 125 g ai/ha
Summary of the method: as §1

[4] = system: johnsongrass (Sorghum halepense); test: Test D pre-/postemergence plant response; conditions: Sorghum halepense; for pest or weed control at 31 g/ha: 31 g ai/ha; for pest or weed control at 62 g/ha: 62 g ai/ha; for pest or weed control at 125 g/ha: 125 g ai/ha
Summary of the method: as §1

[5] = system: galium (catchweed bedstraw, Galium aparine); test: Test D pre-/postemergence plant response; conditions: Galium; for pest or weed control at 31 g/ha: 31 g ai/ha; for pest or weed control at 62 g/ha: 62 g ai/ha; for pest or weed control at 125 g/ha: 125 g ai/ha
Summary of the method: as §1

[6] = system: small-flower umbrella sedge (Cyperus difformis); test: Test C flooded paddy test plant response; conditions: Cyperus difformis; Flood, 250 g ai/ha; scale of 0 to 100 where 0 is no effect and 100 is complete control; 13 to 15 days; read-out: Sedge, Umbrella plant response rating
Summary of the method: (§2)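 Scale 0 (no effect) to 100 (complete control), assigned visually versus controls after 13–15 d greenhouse. Application: directly to paddy water, 3 cm flood depth kept constant, 2-leaf stage.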

[7] = system: ducksalad (Heteranthera limosa); test: Test C flooded paddy test plant response; conditions: Heteranthera limosa; Flood, 250 g ai/ha; scale of 0 to 100 where 0 is no effect and 100 is complete control; 13 to 15 days; read-out: Ducksalad plant response rating
Summary of the method: as §2

[8] = system: barnyardgrass (Echinochloa crus-galli); test: Test C flooded paddy test plant response; conditions: Echinochloa crus-galli; Flood, 250 g ai/ha; scale of 0 to 100 where 0 is no effect and 100 is complete control; 13 to 15 days; read-out: Barnyardgrass plant response rating
Summary of the method: as §2

[9] = system: rice (Oryza sativa); test: Test C flooded paddy test plant response; conditions: Oryza sativa; Flood, 250 g ai/ha; scale of 0 to 100 where 0 is no effect and 100 is complete control; 13 to 15 days; read-out: Rice plant response rating
Summary of the method: as §2

[10] = post-emergence, Postemergence, scale 0 to 100 (0 no effect, 100 complete control), read-out: Crabgrass, Large plant response rating
[11] = post-emergence, Postemergence, scale 0 to 100, 0 no effect, 100 complete control, read-out: Plant response rating, Crabgrass, Large
[12] = pre-emergence, Preemergence, scale 0 to 100 (0 no effect, 100 complete control), read-out: Plant response rating, Crabgrass, Large
[13] = post-emergence, Postemergence, scale 0 to 100, 0 no effect, 100 complete control, read-out: Plant response rating, Wheat
[14] = pre-emergence, Preemergence, scale 0 to 100 (0 no effect, 100 complete control), read-out: Plant response rating, Wheat
[15] = post-emergence, Postemergence, scale 0 to 100, 0 no effect, 100 complete control, read-out: Plant response rating, Johnsongrass
[16] = pre-emergence, Preemergence, scale 0 to 100 (0 no effect, 100 complete control), read-out: Plant response rating, Johnsongrass
[17] = post-emergence, Postemergence, scale 0 to 100, 0 no effect, 100 complete control, read-out: Plant response rating, Galium
[18] = pre-emergence, Preemergence, scale 0 to 100 (0 no effect, 100 complete control), read-out: Plant response rating, Galium

Fc1cccc(Oc2ncc(Cl)cn2)c1-c1cc(C(F)(F)F)on1 [Compound 168, 5-chloro-2-[2-[5-(trifluoromethyl)-3-isoxazolyl]-3-fluorophenoxy]pyrimidine]
pest or weed control at 16 g/ha ([1]; 16 g ai/ha): 85%
pest or weed control at 31 g/ha ([1]; 31 g ai/ha): 100%
pest or weed control at 62 g/ha ([1]; 62 g ai/ha): 100%
pest or weed control at 16 g/ha [2, 10]: 5%
pest or weed control at 31 g/ha [2, 10]: 5%
pest or weed control at 62 g/ha [2, 11]: 15%
pest or weed control at 125 g/ha [2, 11]: 40%
pest or weed control at 125 g/ha ([2]; pre-emergence, Preemergence, read-out: Plant response rating (scale 0 to 100), Crabgrass, Large): 100%
pest or weed control at 16 g/ha [2, 12]: 100%
pest or weed control at 31 g/ha [2, 12]: 100%
pest or weed control at 62 g/ha [2, 12]: 100%
plant injury at 31 g/ha ([3]; post-emergence, Postemergence, scale 0 to 100 (0 no effect, 100 complete control), read-out: Wheat plant response rating): 10%
plant injury at 62 g/ha [3, 13]: 30%
plant injury at 125 g/ha [3, 13]: 35%
plant injury at 125 g/ha ([3]; pre-emergence, Preemergence, read-out: Plant response rating (scale 0 to 100), Wheat): 85%
plant injury at 16 g/ha ([3]; pre-emergence, Preemergence, 16 g ai/ha, scale 0 to 100 (0 no effect, 100 complete control), read-out: Plant response rating, Wheat): 0%
plant injury at 31 g/ha [3, 14]: 5%
plant injury at 62 g/ha [3, 14]: 45%
pest or weed control at 31 g/ha ([4]; post-emergence, Postemergence, scale 0 to 100 (0 no effect, 100 complete control), read-out: Johnsongrass plant response rating): 5%
pest or weed control at 62 g/ha [4, 15]: 5%
pest or weed control at 125 g/ha [4, 15]: 20%
pest or weed control at 125 g/ha ([4]; pre-emergence, Preemergence, read-out: Plant response rating (scale 0 to 100), Johnsongrass): 100%
pest or weed control at 16 g/ha ([4]; pre-emergence, Preemergence, 16 g ai/ha, scale 0 to 100 (0 no effect, 100 complete control), read-out: Plant response rating, Johnsongrass): 35%
pest or weed control at 31 g/ha [4, 16]: 95%
pest or weed control at 62 g/ha [4, 16]: 85%
pest or weed control at 31 g/ha ([5]; post-emergence, Postemergence, scale 0 to 100 (0 no effect, 100 complete control), read-out: Galium plant response rating): 95%
pest or weed control at 62 g/ha [5, 17]: 95%
pest or weed control at 125 g/ha [5, 17]: 100%
pest or weed control at 125 g/ha ([5]; pre-emergence, Preemergence, read-out: Plant response rating (scale 0 to 100), Galium): 100%
pest or weed control at 16 g/ha ([5]; pre-emergence, Preemergence, 16 g ai/ha, scale 0 to 100 (0 no effect, 100 complete control), read-out: Plant response rating, Galium): 100%
pest or weed control at 31 g/ha [5, 18]: 100%
pest or weed control at 62 g/ha [5, 18]: 100%
pest or weed control at 250 g/ha [6]: 90%
pest or weed control at 250 g/ha [7]: 90%
pest or weed control at 250 g/ha [8]: 90%
plant injury at 250 g/ha [9]: 40%
